Experimental data taken from patent publication US5100880A, “Novel betalactam elastase inhibitors containing phosphorous acid derivatives at the 4-position of the 2-azetidinone” (Merck & Co., Inc., priority 1991, dated 1992).

Target: T1, human granulocyte elastase (Homo sapiens, UniProt P08246)
T1 construct: Crude extract of human polymorphonuclear leukocytes (PMN) containing elastase activity; endogenous in cells; host or cells: human polymorphonuclear leukocytes (PMN), crude extract
T1 sequence (P08246 30-247 limits assumed): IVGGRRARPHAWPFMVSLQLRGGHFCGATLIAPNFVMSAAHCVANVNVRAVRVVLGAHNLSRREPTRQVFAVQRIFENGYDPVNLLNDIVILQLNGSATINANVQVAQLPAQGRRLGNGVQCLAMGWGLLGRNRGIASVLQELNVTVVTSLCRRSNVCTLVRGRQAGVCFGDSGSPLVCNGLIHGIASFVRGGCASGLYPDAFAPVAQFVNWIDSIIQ
Experiment: Inhibition of human polymorphonuclear leukocyte elastase via hydrolysis of Boc-AAPAN or Boc-AAPVN
Format: biochemical
Details: crude extract of human PMN; 0.05M TES buffer pH 7.5; substrate 0.2 mM Boc-AAPAN or Boc-AAPVN; read-out: kobs /I, second order rate constant for inactivation of the enzyme
Procedure: Enzyme Assays for the Inhibition of Human Polymorphonuclear Leukocyte Elastase Via Hydrolysis of N-t-Boc-alanyl-alanyl-prolylalanine-p-nitroanilide (Boc-AAPAN) or N-t-Boc-alanyl-prolylvaline-p-nitroanilide (Boc-AAPVN) Reagent
0.05M TES (N-tris[hydroxymethyl]methyl-2-amino-ethanesulfonic acid) Buffer, pH 7.5.
0.2 mM Boc-AAPAN or Boc-AAPVN.
To prepare substrate, the solid was first dissolved in 10.0 ml DMSO. Buffer at pH 7.5 was then added to a final volume of 100 ml.
Crude extract of human polymorphonuclear leukocytes (PMN) containing elastase activity.
Inhibitors (azetidinones) to be tested dissolved in DMSO just before use.
To 1.0 ml of 0.2 mM Boc-AAPAN in a cuvette, 0.01-0.1 ml of DMSO with or without inhibitor was added. After mixing, a measurement was taken at 410 mμ to detect any spontaneous hydrolysis due to presence of test compound. 0.05 Milliliters of PMN extract was then added and the ΔOD/min at 410 mμ was measured and recorded. Beckman model 35 spectrophotometer was used.
Results are also expressed as Ki, the micromolar concentration of the inhibitor (μM) giving 50% of the control enzyme activity; or as ^k obs/I which is the second order rate constant in per mole per second for inactivation of the enzyme.
The elastase activity in the crude PMN extract may vary from one preparation to another. […]

CCCC(NC(=O)N1C(=O)C(CC)(CC)C1Oc1ccc(CP(=O)(OCC)OCC)cc1)c1ccc(C)cc1 [Example 1, (4S)-3,3-Diethyl-1-[(R)-α-n-propyl(4-methyl)-benzylaminocarbonyl)]-4-[4-(diethoxyphosphinylmethyl)-phenoxy]-azetidin-2-one]
kinact/KI: 1.2e+06 M⁻¹ s⁻¹

CCCC(NC(=O)N1C(=O)C(CC)(CC)C1Oc1ccc(CP(=O)(O)O)cc1)c1ccc(C)cc1 [Example 2, (4S)-3,3-Diethyl-1-[(R)-α-n-propyl-(4-methyl)-benzylaminocarbonyl)]-4-[4-(dihydroxyphosphinylmethyl)phenoxy]-azetidin-2-one]
kinact/KI: 220000 M⁻¹ s⁻¹
